# Laboratory results taken from patent US20220175729A1, “PHARMACEUTICAL USE OF CHLOROPHYLLIDE FOR CANCER THERAPY” (I-SHOU UNIVERSITY, priority 2020, published 2022).
# Columns and labels:
# [1] = DPPH free radical scavenging assay; format: biochemical
# Protocol: The DPPH assay was used to evaluate the free radical-scavenging of chlorophyllide. Briefly, DPPH (8 mg) was dissolved in methanol (100 mL) to obtain a stock solution of 80 μg/mL. Then, 2.95 mL of the working solution was mixed with 50 μL of sample. After incubation in a dark at room temperature for 20 min, the absorbance was measured at 517 nm. The DPPH scavenging effect (%) was determined using the following formula: […]
# where Ac was the absorbance of the blank control, Ai was the absorbance in the presence of the samples, and Aj was the absorbance of the samples alone. Vitamin B2 was used as a reference standard compound.
# [2] = system: MCF7 breast cancer cells; conditions: FIG. 4 comparison, MTT, 0 to 200 μg/mL
# [3] = system: MCF7 breast cancer cells; assay: Target gene expression by RT-PCR, MCF7; format: cell-based, human; conditions: MCF7 treated with chlorophyllide
# Excerpt: (§1) Then, among the 50 candidate genes, CCR1, STIM2, ETNK1, RAP2B, and TOP2A were used as target genes in real-time polymerase chain reaction (RT-PCR).
# [4] = system: MDA-MB-231 breast cancer cells; assay: Target gene expression by RT-PCR, MDA-MB-231; format: cell-based, human; conditions: MDA-MB-231 treated with chlorophyllide
# Excerpt: as §1
# [5] = system: MCF7 / MDA-MB-231 breast cancer cells; assay: Log2 fold change of target genes (Table 5, cell line and method not stated); format: cell-based, human
# Protocol: The gene expression profiles of the MCF7 breast cancer cells treated with chlorophyllide or MDA-MB-231 breast cancer cells treated with chlorophyllide and the corresponding untreated cells were analyzed by using next generation sequencing (NGS).
# as §1
molecule,measurement,setting,value
Cc1cc2nc3c(=O)[nH]c(=O)nc-3n(C[C@H](O)[C@H](O)[C@H](O)CO)c2cc1C [vitamin B2],DPPH scavenging rate,[1]; 100 μg/mL,28.05%
chlorophyll,IC50,[2],197.31 µg/mL
same,DPPH scavenging rate,[1]; 100 μg/mL,52.95%
same,DPPH scavenging rate,[1]; 200 μg/mL,65.11%
same,DPPH scavenging rate,[1]; 400 μg/mL,88.62%
same,EC50 (concentration that can inhibit 50% of DPPH free radicals),[1]; by extrapolation from regression analysis,62.14 µg/mL
chlorophyllide,DPPH scavenging rate,[1]; 100 μg/mL,31.01%
same,DPPH scavenging rate,[1]; 200 μg/mL,26.92%
same,DPPH scavenging rate,[1]; 400 μg/mL,26.09%
same,"gene expression level by RT-PCR, CCR1",[3]; gene CCR1,6.798
same,"gene expression level by RT-PCR, ETNK1",[3]; gene ETNK1,1.987
same,"gene expression level by RT-PCR, MAGI1",[3]; gene MAGI1,3.126
same,"gene expression level by RT-PCR, NLRC5",[3]; gene NLRC5,0.684
same,"gene expression level by RT-PCR, PKN1",[3]; gene PKN1,1.167
same,"gene expression level by RT-PCR, RAP2B",[3]; gene RAP2B,0.5882
same,"gene expression level by RT-PCR, SLC7A7",[3]; gene SLC7A7,0.3107
same,"gene expression level by RT-PCR, STIM2",[3]; gene STIM2,6.125
same,"gene expression level by RT-PCR, TOP2A",[3]; gene TOP2A,1.574
same,"gene expression level by RT-PCR, CCR1",[4]; gene CCR1,10.079
same,"gene expression level by RT-PCR, ETNK1",[4]; gene ETNK1,5.954
same,"gene expression level by RT-PCR, MAGI1",[4]; gene MAGI1,1.3977
same,"gene expression level by RT-PCR, NLRC5",[4]; gene NLRC5,5.527
same,"gene expression level by RT-PCR, PKN1",[4]; gene PKN1,0.5819
same,"gene expression level by RT-PCR, RAP2B",[4]; gene RAP2B,3.694
same,"gene expression level by RT-PCR, SLC7A7",[4]; gene SLC7A7,1.159
same,"gene expression level by RT-PCR, STIM2",[4]; gene STIM2,3.5088
same,"gene expression level by RT-PCR, TOP2A",[4]; gene TOP2A,11.02
same,"Log2 fold change, CCR1",[5]; gene CCR1,5.954
same,"Log2 fold change, ETNK1",[5]; gene ETNK1,2.181
same,"Log2 fold change, RAP2B",[5]; gene RAP2B,2.375
same,"Log2 fold change, STIM2",[5]; gene STIM2,2.783
chlorophyllin,IC50,[2],218.34 µg/mL
same,DPPH scavenging rate,[1]; 100 μg/mL,25.68%
same,DPPH scavenging rate,[1]; 200 μg/mL,30.58%
same,DPPH scavenging rate,[1]; 400 μg/mL,45.34%
